In publication PMC3694096, “Development of Novel In Vivo Chemical Probes to Address CNS Protein Kinase Involvement in Synaptic Dysfunction” (PLoS ONE, 2013):

Columns and labels:
[1] = Dose escalation adverse event screen (SHIRPA based); type: in vivo; details: highest dose at which no adverse events are observed in dose escalation studies, mice
Description: Novel compounds were screened in vivo using a standard dose escalation screen in mice coupled with clinical observation and testing based on the SHIRPA mouse phenotype assay paradigm. To obtain insight into the potential for off-target activity with the largest known family of small molecule drug targets, G-protein coupled receptors (GPCRs), a cell-based functional screen of the final title compounds was done. The Millipore® GPCR Profiler screen employs the ChemiScreen GPCR stable cell line technology used for real-time calcium flux FLIPR assays on a panel of 158 GPCRs to detect both antagonists and agonists. The NCBI Entrez identifier for each GPCR is provided at the vendor site (www.millipore.com). Follow-up validation of any initial hits as being true positives or negatives was done as described above for protein kinases by testing the concentration dependence of any cellular effects. No validated hits were detected.

p38MAPKs = test system: p38MAPKs; design: method as in PMID 17079143; details: cited from earlier work
[2] = molecular target: casein kinase 1δ (CK1δ), p38βMAPK and other kinases; details: cited from earlier work

## CN(C)c1cc(-c2ccncc2)c(-c2ccccc2)nn1 [MW105, N, N-dimethyl-6-phenyl-5-(pyridin-4-yl)pyridazin-3-amine]
[1]
  Dose Escalating Adverse Event Screen / Adverse Pharm Dose: > 200 mg/kg

## c1ccc(-c2cc(-c3ccncc3)c(N3CCN(c4ncccn4)CC3)nn2)cc1 [MW01-6-189WH]
p38MAPKs
  interaction with p38MAPKs: does not interact with p38MAPKs

## COc1nccc(-c2c(-c3ccc(F)cc3)ncn2C2CCC(O)CC2)n1 (centres unmarked) [SB239063]
[2]
  kinase cross-over: inhibit casein kinase 1δ (CK1δ), p38βMAPK and other kinases

## CCN(CC)c1cc(-c2ccncc2)c(-c2ccccc2)nn1 [MW177]
[1]
  Dose Escalating Adverse Event Screen / Adverse Pharm Dose: > 200 mg/kg

## c1ccc(-c2nnc(N3CCN(c4ncccn4)CC3)cc2-c2ccncc2)cc1 [MW069a]
[1]
  Dose Escalating Adverse Event Screen / Adverse Pharm Dose: 60 mg/kg

## CCCN(C)c1cc(-c2ccncc2)c(-c2ccccc2)nn1 [MW207]
[1]
  Dose Escalating Adverse Event Screen / Adverse Pharm Dose: > 200 mg/kg

## C[S+]([O-])c1ccc(-c2nc(-c3ccncc3)c(-c3ccc(F)cc3)[nH]2)cc1 (centres unmarked) [SB203580]
[2]
  kinase cross-over: inhibit casein kinase 1δ (CK1δ), p38βMAPK and other kinases

## CN1CCN(c2cc(-c3ccncc3)c(-c3ccccc3)nn2)CC1 [MW066]
[1]
  Dose Escalating Adverse Event Screen / Adverse Pharm Dose: > 200 mg/kg
